In BindingDB's records for doi:10.1111/cbdd.12324 (Y.B. Chavan College of Pharmacy, 2014):

Assays:
[1] = target: T1, Prostaglandin G/H synthase 1 (Ovis aries, UniProt P05979); assay: Cyclooxygenase (COX) Inhibition Assay; details: 37 °C
T1 sequence (P05979 whole entry): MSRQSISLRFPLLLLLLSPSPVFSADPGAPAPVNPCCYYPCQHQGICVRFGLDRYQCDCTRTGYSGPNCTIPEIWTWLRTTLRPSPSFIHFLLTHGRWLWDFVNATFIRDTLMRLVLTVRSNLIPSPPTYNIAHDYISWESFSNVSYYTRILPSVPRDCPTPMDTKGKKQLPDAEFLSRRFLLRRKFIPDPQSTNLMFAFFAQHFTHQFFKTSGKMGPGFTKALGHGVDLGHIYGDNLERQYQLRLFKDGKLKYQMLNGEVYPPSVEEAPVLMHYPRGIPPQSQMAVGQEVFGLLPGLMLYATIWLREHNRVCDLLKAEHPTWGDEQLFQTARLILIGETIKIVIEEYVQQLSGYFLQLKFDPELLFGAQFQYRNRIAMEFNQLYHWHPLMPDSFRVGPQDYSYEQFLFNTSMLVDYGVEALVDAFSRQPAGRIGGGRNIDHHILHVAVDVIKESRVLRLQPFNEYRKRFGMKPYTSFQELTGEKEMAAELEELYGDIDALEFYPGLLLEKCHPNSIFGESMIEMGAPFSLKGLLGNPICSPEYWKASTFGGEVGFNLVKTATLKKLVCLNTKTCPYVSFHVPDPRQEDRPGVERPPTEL
Method: (§1) The COX-1/COX-2 inhibition assay was done using an enzyme immunoassay (EIA) kit. The reaction buffer (960 uL), containing 0.1 M Tris-HCl (pH 8.0), 5 mM EDTA and 2 mM phenol, with either COX-1 or COX-2 (10 uL) enzyme in the presence of heme (10 uL) was added 10 uL of various concentrations of test drug solutions (0.01, 0.1, 1, 10, 50, and 100 uM in a final volume of 1 mL). The reaction was incubated for 5 min at 37 uC, followed by the addition of 10 uL of AA (100 uM) solution. The reaction was stopped by the addition of 50 uL of 1M HCl after 2 min.

[2] = target: T2, Prostaglandin G/H synthase 2 (Ovis aries, UniProt P79208); assay: Cyclooxygenase (COX) Inhibition Assay; details: 37 °C
T2 sequence (P79208 whole entry): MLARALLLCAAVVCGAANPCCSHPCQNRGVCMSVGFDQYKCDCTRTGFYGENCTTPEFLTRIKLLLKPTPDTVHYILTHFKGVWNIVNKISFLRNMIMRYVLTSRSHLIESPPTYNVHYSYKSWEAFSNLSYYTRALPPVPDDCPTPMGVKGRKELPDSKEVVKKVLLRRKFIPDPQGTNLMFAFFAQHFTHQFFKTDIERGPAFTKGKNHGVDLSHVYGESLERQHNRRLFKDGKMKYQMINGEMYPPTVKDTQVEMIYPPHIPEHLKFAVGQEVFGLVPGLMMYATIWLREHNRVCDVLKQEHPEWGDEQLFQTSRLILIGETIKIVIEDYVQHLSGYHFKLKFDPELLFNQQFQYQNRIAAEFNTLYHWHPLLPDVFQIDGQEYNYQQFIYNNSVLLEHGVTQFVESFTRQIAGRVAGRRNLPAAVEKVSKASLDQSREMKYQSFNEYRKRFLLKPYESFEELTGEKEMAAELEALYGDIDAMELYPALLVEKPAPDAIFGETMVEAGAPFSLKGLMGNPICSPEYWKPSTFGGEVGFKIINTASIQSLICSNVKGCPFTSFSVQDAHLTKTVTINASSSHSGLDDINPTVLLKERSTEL
Method: as §1

Row | Compound | IC50 [1] [µM] | IC50 [2] [µM]
1 | Cc1[nH]n(-c2ccccc2)c(=O)c1CNC(=O)Nc1ccc(Cl)cc1 [1-(4-chlorophenyl)-3-[(3-methyl-5-oxo-1-phenyl-4,5-dihydro-1H-pyrazol-4-yl)methyl]urea (5b)] | > 100 | > 100
2 | Cc1[nH]n(-c2ccccc2)c(=O)c1CNC(=S)Nc1ccccc1 [1-[(3-methyl-5-oxo-1-phenyl-4,5-dihydro-1H-pyrazol-4-yl)methyl]-3-phenylthiourea (5d)] | 80 | 0.2
3 | Cc1[nH]n(-c2ccccc2)c(=O)c1CNC(N)=S [1-[(3-methyl-5-oxo-1-phenyl-4,5-dihydro-1H-pyrazol-4-yl)methyl]thiourea (5c)] | > 100 | 85
4 | Cc1[nH]n(-c2ccccc2)c(=O)c1CNC(N)=O [1-[(3-methyl-5-oxo-1-phenyl-4,5-dihydro-1H-pyrazol-4-yl)methyl]urea (5a)] | > 100 | 2.3
5 | Cc1[nH]n(-c2ccccc2)c(=O)c1CN=C(N)N [1-((3-methyl-5-oxo-1-phenyl-4,5-dihydro-1H-pyrazol-4-yl)methyl)guanidine (5e)] | > 100 | 50.7

Next, values leading:

Row | IC50 [1] [µM] | IC50 [2] [µM] | Compound
6 | > 100 | 35 | Cc1cc(=O)n(-c2ccccc2)[nH]1 [MLS000069602]
7 | > 100 | 1 | Cc1[nH]n(-c2ccccc2)c(=O)c1CNc1ccc(S(N)(=O)=O)cc1 [4-{[(3-methyl-5-oxo-1-phenyl-4,5-dihydro-1H-pyrazol-4-yl)methyl]amino} benzene sulfonamide (5f)]
8 | > 100 | > 100 | Cc1[nH]n(-c2ccccc2)c(=O)c1CNC(=O)NN [N-[(3-methyl-5-oxo-1-phenyl-4,5-dihydro-1H-pyrazol-4yl)methyl] hydrazine carboxamide (5g)]
